Each structure is given as a SMILES string. Like-named read-outs stand apart in the source and are kept apart here.

The term EC50 denotes the midpoint of the concentration-response curve.

In one series the test system is HIV-1. Nature of the series: HIV-1 single-round infectious luciferase reporter virus (pseudotype) assay in HeLa CD4 CCR5 cells. The format is cell-based. A digest of the protocol: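 HeLa CD4 CCR5 cells (5×10^4/well, DMEM + 10% FBS) were treated with compound (final <10 μM) and infected with single-round luciferase reporter virus made in 293 cells, at MOI ~0.01. Luciferase was read 72 h post infection. EC50 came from 10-concentration percent-inhibition curves fitted to a four-parameter logistic model.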
Background: A reporter such as luciferase makes a cellular process visible.

The next series relates to HeLa cells. Nature of the series: Cytotoxicity assay in HeLa cells (MTT dye reduction, CC50). A digest of the protocol:
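HeLa cells expressing CD4 and CCR5, grown in DMEM with 10% FBS, were used for cytotoxicity testing by MTT dye reduction; the text gives no further cytotoxicity conditions. The parallel antiviral assay exposed the same cells to compound at final <10 μM for 72 h.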
(In general: Formazan colour is commonly taken as a measure of viable cells.)

The nature of series [1]: Metabolic stability in pooled human liver microsomes (HLM). Particulars: 3 μM drug. The procedure:
Metabolic Stability Studies of compounds in Liver Microsomes. The metabolic stability of compounds were investigated in pooled liver microsomes from humans. The human liver microsomes were obtained from BD Gentest (Lot #16, Woburn, Mass.) with a protein concentration of 20 mg/ml and a total cytochrome P450 (CYP) concentration of 0.55 nmol/mg protein. A stock solution of drug was prepared in acetonitrile at 1 mM. […] The incubation media consisted of potassium phosphate buffer (0.1 M, pH 7.4), liver microsomes (final concentration 0.9 mg/ml), magnesium chloride (0.033 mM), and a NADPH-regenerating system. […] The test compound was pre-incubated in the media for 2 min. The reaction was initiated by the addition of the cofactors. The incubation was carried out at 37° C. for 10 min. The reaction was terminated by drawing an aliquot of 100 μL from the incubation and adding into 200 μL of acetonitrile containing a reference compound as an […] analytical standard. Following vortex-mixing and centrifugation, an aliquot of 10 μL of the supernatant was analyzed by LC/MS.
GUIDELINES can be used to categorized test substances as low, intermediate or highly cleared compounds.
For accuracy, the determined measure of viral inhibition is an EC50; but the minimum plasma concentrations which should be maintained in a patient is generally believed to be at least four or five fold higher. […] Lower is better. • 4) Estimating potential exposure in man by measuring parameters such as AUC and rate of clearance by oral and iv dosing in rats. High exposure and low clearance was desired.
The stability of compounds were also evaluated to determine metabolic stability when incubated in in vitro preparations of human liver microsomes (HLM). This is one commonly used predictive system for evaluating the potential for human metabolism and projecting clearance rates in man. Compounds with low clearance rates were most desireable.
In general terms: Liver microsomes are vesicles of endoplasmic reticulum, rich in cytochrome P450 enzymes.

Where [2] appears, read: Human immunodeficiency virus 1, HeLa-CD4/CCR5, read-out: EC50 Group from TABLE 1, HeLa CD4 CCR5 cells, single-round infectious luciferase reporter virus.
Setting [3] is: Human immunodeficiency virus 1, HeLa-CD4/CCR5, read-out: EC50 category, HIV-1 single-round reporter virus assay, category 1/2/3 per Table A1 key.
Setting [4] is: cytotoxicity, Yes = CC50 above 100 uM, No = not.
Where [5] appears, read: pooled human liver microsomes, Low/Intermediate/High.
Setting [6] is: Human immunodeficiency virus 1, HeLa-CD4/CCR5, read-out: EC50 Group from Table 1, Table 2-1, HeLa CD4 CCR5 cells, single-round luciferase reporter virus.

Take `COc1cnc(-n2cnc(C(=O)N(C)C)n2)c2[nH]cc(C(=O)C(=O)N3CCN(C(=O)c4ccccc4)CC3)c12` [Example 275, 1-benzoyl-4-[(4-methoxy-7-(3-dimethylaminocarbonyl-1,2,4-triazol-1-yl)-6-azaindol-3-yl)-oxoacetyl]piperazine]: the EC50 with HIV-1 (setting [2]) is less than 1000 nM; in the series with HIV-1 (setting [3]), less than 0.2 nM. Also, the “CC50 > 100 uM” value in the series with HeLa cells (setting [4]) is on record as “Yes”. In addition, the “HLM predicted human clearance class” value in series [1] (setting [5]) was “Low (0-0.100)”.

With `O=C(C(=O)N1CCN(C(=O)c2ccccc2)CC1)c1c[nH]c2c(-c3c[nH]nn3)ncc(F)c12` [Example 299], the EC50 in the series on HIV-1 (setting [2]) was less than 1000 nM; in the series on HIV-1 (setting [3]), less than 0.2 nM. The “CC50 > 100 uM” value with HeLa cells (setting [4]) is recorded as “No”. Moreover, the “HLM predicted human clearance class” value in series [1] (setting [5]) is on record as “Low (0-0.100)”.

As to `Cc1noc(-c2ncc(F)c3c(C(=O)C(=O)N4CCN(C(=O)c5ccccc5)CC4)c[nH]c23)n1` [Example 300], the EC50 is less than 1000 nM in the series on HIV-1 (setting [2]) and 0.2 to 1000 nM with HIV-1 (setting [3]). Also, the “CC50 > 100 uM” value with HeLa cells (setting [4]) was “Yes”. Further, in series [1] (setting [5]), the “HLM predicted human clearance class” value is listed as “Low (0-0.100)”.

Regarding `Cc1ccnn1-c1ncc(F)c2c(C(=O)C(=O)N3CCN(C(=O)c4ccccc4)CC3)c[nH]c12` [Example 312], the values for the EC50 in the series on HIV-1 (setting [2]) and in the series on HIV-1 (setting [3]) were less than 1000 nM and 0.2 to 1000 nM, respectively. Further, the “CC50 > 100 uM” value in the series on HeLa cells (setting [4]) is given as “Yes”. Besides, the “HLM predicted human clearance class” value in series [1] (setting [5]) was “Low (0-0.100)”.

Take `Nc1ncn(-c2ncc(F)c3c(C(=O)C(=O)N4CCN(C(=O)c5ccccc5)CC4)c[nH]c23)n1` [Example 313]: the values for the EC50 in the series with HIV-1 (setting [2]) and with HIV-1 (setting [3]) were less than 1000 nM and less than 0.2 nM, respectively. The “CC50 > 100 uM” value with HeLa cells (setting [4]) was “Yes”. Also, in series [1] (setting [5]), the “HLM predicted human clearance class” value is “Low (0-0.100)”.

For the molecule `C[C@@H]1CN(C(=O)C(=O)c2c[nH]c3c(-n4ccnn4)ncc(F)c23)CCN1C(=O)c1ccccc1` [Example 314], the values for the EC50 in the series on HIV-1 (setting [6]) and with HIV-1 (setting [3]) were less than 1000 nM and less than 0.2 nM, respectively. Also, the “CC50 > 100 uM” value in the series on HeLa cells (setting [4]) is reported as “Yes”. In addition, in series [1] (setting [5]), the “HLM predicted human clearance class” value is “Low (0-0.100)”.

On to `Cc1ncn(-c2ncc(F)c3c(C(=O)C(=O)N4CCN(C(=O)c5ccccc5)[C@H](C)C4)c[nH]c23)n1` [Example 315], for which the EC50 was less than 1000 nM in the series with HIV-1 (setting [6]) and less than 0.2 nM in the series with HIV-1 (setting [3]). In the series on HeLa cells (setting [4]), the “CC50 > 100 uM” value was “Yes”. The “HLM predicted human clearance class” value in series [1] (setting [5]) is “Low (0-0.100)”.

Turning to `COc1cnc(-n2cnc(C)c2)c2[nH]cc(C(=O)C(=O)N3CCN(C(=O)c4ccccc4)CC3)c12` [Example 318], the EC50 in the series on HIV-1 (setting [2]) is less than 1000 nM; with HIV-1 (setting [3]) it was 0.2 to 1000 nM. In addition, in the series with HeLa cells (setting [4]), the “CC50 > 100 uM” value was “Yes”. In addition, the “HLM predicted human clearance class” value in series [1] (setting [5]) was “Low (0-0.100)”.

Consider `CCc1ncn(-c2ncc(OC)c3c(C(=O)C(=O)N4CCN(C(=O)c5ccccc5)CC4)c[nH]c23)n1` [Example 321], for which the EC50 with HIV-1 (setting [2]) was less than 1000 nM; with HIV-1 (setting [3]) it was less than 0.2 nM. For the same molecule, the “CC50 > 100 uM” value with HeLa cells (setting [4]) is recorded as “Yes”. For the same molecule, in series [1] (setting [5]), the “HLM predicted human clearance class” value was “Low (0-0.100)”.

In the case of `COCc1ncn(-c2ncc(OC)c3c(C(=O)C(=O)N4CCN(C(=O)c5ccccc5)[C@H](C)C4)c[nH]c23)n1` [Example 324], the results for the EC50 in the series with HIV-1 (setting [6]) and with HIV-1 (setting [3]) were less than 1000 nM and less than 0.2 nM, respectively. For the same molecule, the “CC50 > 100 uM” value with HeLa cells (setting [4]) is reported as “Yes”. The “HLM predicted human clearance class” value in series [1] (setting [5]) is “Low (0-0.100)”.

Consider `COc1cnc(-n2cc(C)nn2)c2[nH]cc(C(=O)C(=O)N3CCN(C(=O)c4ccccc4)CC3)c12` [Example 325], for which the figures for the EC50 with HIV-1 (setting [2]) and in the series on HIV-1 (setting [3]) were less than 1000 nM and less than 0.2 nM, respectively. Moreover, the “CC50 > 100 uM” value in the series on HeLa cells (setting [4]) is listed as “Yes”. Besides, the “HLM predicted human clearance class” value in series [1] (setting [5]) was “Low (0-0.100)”.

For the molecule `COc1cnc(-n2ncc(C)n2)c2[nH]cc(C(=O)C(=O)N3CCN(C(=O)c4ccccc4)CC3)c12` [Example 327], the EC50 in the series with HIV-1 (setting [2]) was less than 1000 nM; with HIV-1 (Human immunodeficiency virus 1, HeLa-CD4/CCR5, read-out: EC50 category, initial pseudotype assay, key in Table A1), 0.2 to 1000 nM. Moreover, the “CC50 > 100 uM” value in the series on HeLa cells (HeLa cells, six days with drug, MTT) was “Yes”. The “HLM predicted human clearance class” value in series [1] (0.9 mg/ml microsomes, 37° C., 10 min) was “Low (0-0.100)”.

These data come from US20050090522A1 (priority 2001, published 2005).
